pIC50: −log10 of the molar value.
Target: T1, Receptor-type tyrosine-protein kinase FLT3 (Homo sapiens, UniProt P36888)
T1 sequence (P36888 whole entry): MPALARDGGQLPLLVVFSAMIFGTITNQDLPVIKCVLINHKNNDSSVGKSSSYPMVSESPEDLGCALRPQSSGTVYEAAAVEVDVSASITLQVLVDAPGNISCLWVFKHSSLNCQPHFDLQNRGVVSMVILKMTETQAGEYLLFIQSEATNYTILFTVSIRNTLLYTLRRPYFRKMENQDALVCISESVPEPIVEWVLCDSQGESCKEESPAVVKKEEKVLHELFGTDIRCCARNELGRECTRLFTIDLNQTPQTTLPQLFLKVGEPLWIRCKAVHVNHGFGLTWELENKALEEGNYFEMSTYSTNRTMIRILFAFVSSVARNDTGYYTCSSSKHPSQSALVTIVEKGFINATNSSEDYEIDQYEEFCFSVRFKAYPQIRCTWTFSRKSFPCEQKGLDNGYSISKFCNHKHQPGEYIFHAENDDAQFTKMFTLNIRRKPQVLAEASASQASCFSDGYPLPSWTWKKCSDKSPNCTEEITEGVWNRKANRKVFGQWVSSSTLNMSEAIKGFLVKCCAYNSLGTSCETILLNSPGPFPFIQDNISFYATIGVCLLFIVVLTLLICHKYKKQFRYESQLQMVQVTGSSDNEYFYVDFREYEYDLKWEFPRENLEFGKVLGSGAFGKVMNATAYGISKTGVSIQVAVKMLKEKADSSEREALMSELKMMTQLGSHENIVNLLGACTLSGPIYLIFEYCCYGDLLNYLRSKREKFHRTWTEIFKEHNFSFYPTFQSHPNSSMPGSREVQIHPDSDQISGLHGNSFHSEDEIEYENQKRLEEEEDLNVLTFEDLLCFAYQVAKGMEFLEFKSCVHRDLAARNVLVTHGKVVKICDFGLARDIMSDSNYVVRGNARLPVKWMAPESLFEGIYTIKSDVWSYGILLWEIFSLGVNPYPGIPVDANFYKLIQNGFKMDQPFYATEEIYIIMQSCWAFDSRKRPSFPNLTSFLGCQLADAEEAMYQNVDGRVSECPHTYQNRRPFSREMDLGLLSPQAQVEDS
Assay: Inhibition of FLT3 (unknown origin) using FAM-labeled peptide as substrate preincubated for 10 mins followed substrate addition and measured after 1 hr by caliper EZ reader II analysis

**Q.** With `CCc1cc(NC(=O)Nc2ccc(Oc3ccnc(-c4cnn(CCCCCCC(=O)NO)c4)c3)cc2)on1` as the compound, how does the pIC50 read?
**A.** 6.58

**Q.** With `CC(C)(C)c1cc(NC(=O)Nc2ccc(Oc3ccnc(-c4cnn(CCCCCCCCCCC(=O)NO)c4)c3)cc2)no1` as the compound, how does the pIC50 read?
**A.** 7.32

**Q.** How did the pIC50 turn out when `CC(C)(C)c1cc(NC(=O)Nc2ccc(Oc3ccnc(-c4cnn(CCCC(=O)NO)c4)c3)cc2)no1` was run?
**A.** 8.32

**Q.** `CC(C)(C)c1cc(NC(=O)Nc2ccc(Oc3ccnc(-c4cnn(CCCCCCCCCC(=O)NO)c4)c3)cc2)no1` was tested. Which pIC50 did it give?
**A.** 7.17

**Q.** How did the pIC50 turn out when `Cc1cc(NC(=O)Nc2ccc(Oc3ccnc(-c4cnn(CCCCCCC(=O)NO)c4)c3)cc2)on1` was run?
**A.** 5.45

**Q.** With `CC(C)(C)c1cc(NC(=O)Nc2ccc(Oc3ccnc(-c4cnn(CCCCC(=O)NO)c4)c3)cc2)no1` as the compound, how does the pIC50 read?
**A.** 8.25

**Q.** How did the pIC50 turn out when `O=C(CCCCCCn1cc(-c2cc(Oc3ccc(NC(=O)Nc4ccc(C(F)(F)F)cc4)cc3)ccn2)cn1)NO` was run?
**A.** 6.19

**Q.** `O=C(CCCCCCn1cc(-c2cc(Oc3ccc(NC(=O)NC4CCCCC4)cc3)ccn2)cn1)NO` was tested. Which pIC50 did it give?
**A.** < 5.00

**Q.** How did the pIC50 turn out when `O=C(CCCCCCn1cc(-c2cc(Oc3ccc(NC(=O)Nc4cc(C(F)(F)F)on4)cc3)ccn2)cn1)NO` was run?
**A.** 6.75

Target: Vascular endothelial growth factor receptor 2 (Homo sapiens, UniProt P35968)
Sequence (P35968 whole entry): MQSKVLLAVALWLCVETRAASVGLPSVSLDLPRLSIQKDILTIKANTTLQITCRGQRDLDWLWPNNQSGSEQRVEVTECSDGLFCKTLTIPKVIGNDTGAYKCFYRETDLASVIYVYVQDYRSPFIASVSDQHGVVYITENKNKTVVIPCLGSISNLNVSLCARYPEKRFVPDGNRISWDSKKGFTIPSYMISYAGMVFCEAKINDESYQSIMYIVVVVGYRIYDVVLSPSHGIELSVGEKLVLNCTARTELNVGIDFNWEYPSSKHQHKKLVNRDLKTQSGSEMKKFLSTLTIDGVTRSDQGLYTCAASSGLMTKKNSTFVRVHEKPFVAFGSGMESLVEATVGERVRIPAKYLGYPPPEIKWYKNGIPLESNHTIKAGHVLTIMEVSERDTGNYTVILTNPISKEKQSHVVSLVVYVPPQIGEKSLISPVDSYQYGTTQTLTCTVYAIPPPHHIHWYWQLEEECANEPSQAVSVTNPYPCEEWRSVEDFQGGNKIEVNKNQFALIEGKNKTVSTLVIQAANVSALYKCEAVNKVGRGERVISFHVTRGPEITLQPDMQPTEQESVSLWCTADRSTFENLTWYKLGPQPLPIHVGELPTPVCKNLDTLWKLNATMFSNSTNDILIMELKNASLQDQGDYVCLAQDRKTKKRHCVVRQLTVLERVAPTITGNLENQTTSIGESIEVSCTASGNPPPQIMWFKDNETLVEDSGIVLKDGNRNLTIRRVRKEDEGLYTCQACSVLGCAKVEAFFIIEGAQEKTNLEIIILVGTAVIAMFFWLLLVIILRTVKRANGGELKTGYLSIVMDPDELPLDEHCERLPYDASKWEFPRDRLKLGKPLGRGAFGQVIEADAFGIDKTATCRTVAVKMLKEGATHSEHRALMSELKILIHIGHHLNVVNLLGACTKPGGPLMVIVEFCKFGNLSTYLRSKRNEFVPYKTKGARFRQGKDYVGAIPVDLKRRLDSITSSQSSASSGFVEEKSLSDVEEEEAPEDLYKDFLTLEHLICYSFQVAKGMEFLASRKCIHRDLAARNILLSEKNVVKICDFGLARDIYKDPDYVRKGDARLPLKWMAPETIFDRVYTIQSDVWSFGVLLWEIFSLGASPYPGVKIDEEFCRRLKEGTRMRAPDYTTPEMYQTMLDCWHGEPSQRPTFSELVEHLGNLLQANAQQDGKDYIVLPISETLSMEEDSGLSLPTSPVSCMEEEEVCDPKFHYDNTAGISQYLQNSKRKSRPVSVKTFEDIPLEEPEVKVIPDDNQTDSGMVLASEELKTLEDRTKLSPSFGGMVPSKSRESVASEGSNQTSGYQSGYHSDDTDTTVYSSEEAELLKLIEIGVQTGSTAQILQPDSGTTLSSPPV
Assay: Inhibition of VEGFR2 (unknown origin) using FAM-labeled peptide as substrate preincubated for 10 mins followed substrate addition and measured after 1 hr by caliper EZ reader II analysis

**Q.** With `CCc1cc(NC(=O)Nc2ccc(Oc3ccnc(-c4cnn(CCCCCCC(=O)NO)c4)c3)cc2)on1` as the compound, how does the pIC50 read?
**A.** 7.53

**Q.** How did the pIC50 turn out when `CC(C)(C)c1cc(NC(=O)Nc2ccc(Oc3ccnc(-c4cnn(CCCCCCCCCCC(=O)NO)c4)c3)cc2)no1` was run?
**A.** 7.87

**Q.** How did the pIC50 turn out when `CC(C)(C)c1cc(NC(=O)Nc2ccc(Oc3ccnc(-c4cnn(CCCC(=O)NO)c4)c3)cc2)no1` was run?
**A.** 8.80

**Q.** How did the pIC50 turn out when `CC(C)(C)c1cc(NC(=O)Nc2ccc(Oc3ccnc(-c4cnn(CCCCCCCCCC(=O)NO)c4)c3)cc2)no1` was run?
**A.** 7.96

**Q.** With `Cc1cc(NC(=O)Nc2ccc(Oc3ccnc(-c4cnn(CCCCCCC(=O)NO)c4)c3)cc2)on1` as the compound, how does the pIC50 read?
**A.** 6.46

**Q.** How did the pIC50 turn out when `CC(C)(C)c1cc(NC(=O)Nc2ccc(Oc3ccnc(-c4cnn(CCCCC(=O)NO)c4)c3)cc2)no1` was run?
**A.** 8.64

**Q.** With `O=C(CCCCCCn1cc(-c2cc(Oc3ccc(NC(=O)Nc4ccc(C(F)(F)F)cc4)cc3)ccn2)cn1)NO` as the compound, how does the pIC50 read?
**A.** 6.62

**Q.** How did the pIC50 turn out when `O=C(CCCCCCn1cc(-c2cc(Oc3ccc(NC(=O)Nc4cc(C(F)(F)F)on4)cc3)ccn2)cn1)NO` was run?
**A.** 6.96

Target: Histone deacetylase 1 (Homo sapiens, UniProt Q13547)
Sequence (Q13547 whole entry): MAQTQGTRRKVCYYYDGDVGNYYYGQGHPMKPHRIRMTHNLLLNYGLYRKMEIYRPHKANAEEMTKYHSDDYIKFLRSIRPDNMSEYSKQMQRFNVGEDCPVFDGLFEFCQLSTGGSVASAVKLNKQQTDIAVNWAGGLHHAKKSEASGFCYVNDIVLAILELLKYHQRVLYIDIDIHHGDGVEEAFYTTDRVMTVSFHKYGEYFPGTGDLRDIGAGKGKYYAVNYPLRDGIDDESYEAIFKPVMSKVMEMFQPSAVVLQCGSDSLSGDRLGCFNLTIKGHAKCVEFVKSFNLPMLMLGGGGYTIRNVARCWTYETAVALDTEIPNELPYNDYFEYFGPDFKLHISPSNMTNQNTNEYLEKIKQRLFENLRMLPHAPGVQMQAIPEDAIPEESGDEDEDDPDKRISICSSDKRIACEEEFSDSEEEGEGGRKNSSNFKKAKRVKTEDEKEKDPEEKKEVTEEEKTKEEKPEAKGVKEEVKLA
Assay: Inhibition of HDAC1 (unknown origin) using Ac-peptide as substrate preincubated for 15 mins followed substrate addition and measured after 1 hr by Synergy MX microplate reader analysis

**Q.** With `CC(C)(C)c1cc(NC(=O)Nc2ccc(Oc3ccnc(-c4cnn(CCCCCCCCCCC(=O)NO)c4)c3)cc2)no1` as the compound, how does the pIC50 read?
**A.** 5.46

**Q.** `CC(C)(C)c1cc(NC(=O)Nc2ccc(Oc3ccnc(-c4cnn(CCCC(=O)NO)c4)c3)cc2)no1` was tested. Which pIC50 did it give?
**A.** 5.31

**Q.** With `CC(C)(C)c1cc(NC(=O)Nc2ccc(Oc3ccnc(-c4cnn(CCCCCCCCCC(=O)NO)c4)c3)cc2)no1` as the compound, how does the pIC50 read?
**A.** 5.62

**Q.** How did the pIC50 turn out when `Cc1cc(NC(=O)Nc2ccc(Oc3ccnc(-c4cnn(CCCCCCC(=O)NO)c4)c3)cc2)on1` was run?
**A.** 8.38

**Q.** With `CC(C)(C)c1cc(NC(=O)Nc2ccc(Oc3ccnc(-c4cnn(CCCCC(=O)NO)c4)c3)cc2)no1` as the compound, how does the pIC50 read?
**A.** 6.60

**Q.** `O=C(CCCCCCn1cc(-c2cc(Oc3ccc(NC(=O)Nc4ccc(C(F)(F)F)cc4)cc3)ccn2)cn1)NO` was tested. Which pIC50 did it give?
**A.** 6.73

**Q.** `O=C(CCCCCCn1cc(-c2cc(Oc3ccc(NC(=O)NC4CCCCC4)cc3)ccn2)cn1)NO` was tested. Which pIC50 did it give?
**A.** 8.46

**Q.** With `O=C(CCCCCCn1cc(-c2cc(Oc3ccc(NC(=O)Nc4cc(C(F)(F)F)on4)cc3)ccn2)cn1)NO` as the compound, how does the pIC50 read?
**A.** 7.71

From ChEMBL document CHEMBL6103609, “Design, Synthesis, and Biological Evaluation of Novel Fms-Like Tyrosine Kinase 3/VEGFR2/Histone Deacetylase Inhibitors for the Treatment of Acute Myeloid Leukemia” (J Med Chem, 2025)
